The record followed here is US12661324B2, “Solid dispersion, pharmaceutical preparations, preparation method, and application thereof” (ASCENTAGE PHARMA (SUZHOU) CO., LTD., priority 2020, dated 2026).

Structures are written as SMILES. In brackets after ≈: the same amount, converted by molar mass.

Series [1] in a line: Pharmacokinetic test in mice (Effect Example 3). The class given is in vivo. To be noted: mouse, plasma, po, male mice, single gavage. The procedure: Four groups of male mice were randomly divided into two groups: test article 1 (solid dispersion prepared in Example 7 and suspension prepared with reverse osmosis water as solvent), the dosages are 25 mg/kg and 100 mg/kg respectively; test article 2 (API prepared in example 1 and suspension prepared with aqueous solution containing 0.2% HPMC-E5), the dosages are 25 mg/kg and 100 mg/kg, respectively. The animals in each group were administered by single gavage.
All animals collected blood samples and separated plasma at 0.087 h, 0.25 h, 0.5 h, 1 h, 2 h, 4 h, 6 h, 8 h and 24 h after administration. All plasma samples were analyzed by LC-MS/Ms. the lower limit of quantification of the method was 10 ng/ml. The plasma concentration data were analyzed by non-compartmental model method (NCA) of metabolic kinetic data analysis software winnonlin8.0.0.3176, and the pharmacokinetic parameters were calculated to evaluate the kinetic characteristics of API in animals after administration.

A short description of series [2]: Equilibrium solubility test. To be noted: 37 °C, thermodynamic from solid. The class given is physicochemical. The procedure: After 2 and 24 hours of high-speed centrifugation, the supernatant was taken, and the concentration of API in the supernatant was determined by high-performance liquid chromatography.
Series [3] is described as follows: Drug dissolution test, rotating basket method, 0.2% SDS solution. To be noted: 500 ml, 100 rpm. The class given is physicochemical. The procedure:
Drug dissolution test was performed on the solid dispersion (rotating basket method, 0.2% SDS solution, 500 ml, 100 rpm). […] Under the same conditions, the drug dissolution of API (compound prepared in example 1) in 10 min, 30 min and 60 min were 7%, 13% and 22% respectively.

The nature of series [4]: Solubility in aqueous medium pH 1-7. The class given is physicochemical. To be noted: aqueous buffer, thermodynamic from solid, 37° C. for 24 hours, acidic or neutral medium pH 1-7. The text has this:
The compound of formula (I) is usually in crystalline form and has very low solubility. […] Even after high humidity (60%) and long-term (12 months) storage, the compound of formula (1) in the solid dispersion of the invention will not be transformed or degraded.

For orientation: half-life means the time in which the quantity being followed falls by half. A high value points to slow decline. The term solubility denotes the concentration that dissolves in the medium under given conditions. A higher solubility goes with much dissolved substance. With `O=C(NS(=O)(=O)c1ccc(NC[C@H]2COCCO2)c([N+](=O)[O-])c1)c1ccc(N2CCN(CC3=C(c4ccc(Cl)cc4)CC4(CCC4)CC3)CC2)cc1Oc1cnc2[nH]ccc2c1` [API, 4-{4-{[6-(4-Chloro-phenyl)-spiro[3,5]nonane-6-ene-7-yl]methyl}-piperazine-1-yl}-N-{{3-nitro-4-[((2S)-[1,4]dioxane-2-ylmethyl)-amino]phenyl}sulfonyl}-2-(1H-pyrrolo[2,3-b]pyridin-5-yloxy)-benzamide], in series [1] (25 mg/kg), the AUC(0-inf) came to 637 ng·h/mL, the AUC(0-t) came to 384 ng·h/mL, the Cmax came out at 82.2 ng/mL and the Tmax came to 3.33 h. In series [1] (25 mg/kg), the half-life is 7.41 h. In addition, in series [1] (100 mg/kg), the AUC(0-inf) was 1120 ng·h/mL, the AUC(0-t) came out at 1100 ng·h/mL, the Cmax was determined as 105 ng/mL and the Tmax stood at 1 h. In series [1] (100 mg/kg), this compound gave a half-life of 3.7 h. In series [2] (FaSSIF), the solubility at 2 h amounted to 1.3 µg/mL (≈ 1.47 µM) and the solubility at 24 h was 0.6 µg/mL (≈ 0.68 µM). For the same compound, in series [2] (FeSSIF), the solubility at 2 h is 2.5 µg/mL (≈ 2.83 µM) and the concentration in solution (solubility at 24 h) came to 0.5 µg/mL (≈ 0.567 µM). In series [3] (10 min), this compound displayed a drug dissolution of 7%. Besides, the drug dissolution in series [3] (30 min) was found to be 13%. The drug dissolution in series [3] (60 min) came to 22%.

`O=C(NS(=O)(=O)c1ccc(NC[C@H]2COCCO2)c([N+](=O)[O-])c1)c1ccc(N2CCN(CC3=C(c4ccc(Cl)cc4)CC4(CCC4)CC3)CC2)cc1Oc1cnc2[nH]ccc2c1` [compound of formula (I), 4-{4-{[6-(4-Chloro-phenyl)-spiro[3,5]nonane-6-ene-7-yl]methyl}-piperazine-1-yl}-N-{{3-nitro-4-[((2S)-[1,4]dioxane-2-ylmethyl)-amino]phenyl}sulfonyl}-2-(1H-pyrrolo[2,3-b]pyridin-5-yloxy)-benzamide] showed a solubility at 24 h in series [4] of 0.3 to 0.6 µg/mL.
